Reference: patent publication US20150105383A1, “HDAC Inhibitors, Alone Or In Combination With PI3K Inhibitors, For Treating Non-Hodgkin's Lymphoma” (Acetylon Pharmaceuticals, Inc., priority 2013, published 2015)
“Also recorded” adds a separate entry of the source.

Legend:
[1] = system: Jeko1 or Mino lymphoma cells; test: Apoptosis by flow cytometry, statements for the cell lines together; type: cell-based, human; conditions: 4 days; for cellular apoptosis: Compound A or B plus a PI3Ki, lymphoma cells; for apoptosis / percentage of apoptotic cells: Jeko1 or Mino, relative to control cells (DMSO), Compound A or B 2-3 μM, GDC-0941 0.075-2 μM, CAL-101 2 μM
Protocol: Jeko1 (FIG. 4A and FIG. 4B) or Mino (FIG. 4C) lymphoma cells were exposed to drug for 4 days, and apoptosis was assessed by flow cytometry by measuring Annexin V binding and cellular permeability to propidium iodide. The relative fraction of cells that were live, in early apoptosis, in late apoptosis, or dead was then estimated. The cells were treated with DMSO, Compound A or B (2-3 μM), GDC-0941 (0.075-2 μM), or the combination of Compound A or B (2-3 μM) with GDC-0941 (0.075-2 μM) on the induction of apoptosis. Alternatively, cells were treated with DMSO, Compound A or B (2 μM), CAL-101 (2 μM), or the combination of Compound A or B (2 μM) with CAL-101 (2 μM) before measuring induction of apoptosis.

[2] = system: Mino, Jeko1, Granta-519, U2932 and SUDHL16 cells; test: MTS cell viability, dose-matrix combination of HDAC6 inhibitor and PI3K inhibitor (Fa-CI, Chou-Talalay); type: cell-based, human; conditions: HDAC6 inhibitor in combination with a PI3K inhibitor (GDC-0941 or GS-1101/CAL-101), 48 hr
Protocol: Human lymphoma cell lines were selected that represented the most common subtypes of NHL. For Mantle Cell Lymphoma (MCL) Mino, Jeko1, and Granta-519 cells were utilized, while U2932 and SUDHL16 cells represented the activated B cell (ABC) and germinal center (GC) subtypes of diffuse large B cell lymphoma (DLBCL), respectively. Briefly, cells were seeded in 384-well plates and treated in quadruplicate in a dose-matrix format with an HDAC6 inhibitor (Compound A, Compound B, or Compound C) in combination with a PI3K inhibitor (GDC-0941 or GS-1101/CAL-101). After incubating these cells for 48 hr, total cell viability was assessed via an MTS assay (Aqueous One, Promega). The fraction affected (Fa) was subsequently determined for each dose combination and the combination index (CI) was assessed using the method of Chou-Talay.

[3] = system: Jeko1, Mino or Granta-519 lymphoma cells; test: Cell cycle distribution by flow cytometry, statements for all cell lines together; type: cell-based, human; conditions: Compound A or B 2 μM and/or PI3K inhibitor, 4 days
Protocol: The relative fraction of cells in each stage of the cell cycle (G0/G1, S, and G2/M), as well as the fraction of dead cells (Sub G1) was then estimated. Cells were treated with DMSO, Compound A or B (2 μM), GDC-0941 (0.075-0.5 μM), or the combination of Compound A or B (2 μM) with GDC-0941 (0.075-0.5 μM) on cell cycle inhibition. Alternatively, cells were treated with DMSO, Compound A or B (2 μM), CAL-101 (1-2 μM), or the combination of Compound A or B (2 μM) with CAL-101 (1-2 μM) before measuring effects on cell cycle inhibition.

[4] = relative to start of dosing; GDC-0941 100 mg/kg PO QD, Compound A 30 mg/kg IP QD; five days per week for 3 cycles
Protocol: Percent body weight change was determined relative to the start of dosing, and the mean change±SD was plotted. All treatments were dosed five days per week for 3 cycles.

Row | SMILES | cellular apoptosis [1] | apoptosis / percentage of apoptotic cells [1] | synergy in decreasing lymphoma cell viability [2] | cell cycle progression [3] | body weight change [4]
1 | O=C(CCCCCCNC(=O)c1cnc(N(c2ccccc2)c2ccccc2)nc1)NO [Compound A, 2-(diphenylamino)-N-(7-(hydroxyamino)-7-oxoheptyl) pyrimidine-5-carboxamide] | synergistic increases in cellular apoptosis | small increase in apoptosis relative to control cells | synergistic decreases in lymphoma cell viability | decreased cell cycle progression | –
2 | CS(=O)(=O)N1CCN(Cc2cc3nc(-c4cccc5[nH]ncc45)nc(N4CCOCC4)c3s2)CC1 [GDC-0941, 2-(1H-indazol-4-yl)-6-(4-methanesulfonyl-piperazin-1-ylmehtyl)-4-morpholin-4-yl-thienol[3,2-d]pyrimidine] | – | did not result in increased cell death | – | – | complete recovery after minimal body weight loss; also recorded: low level body weight loss was recovered by the end of the treatment period
3 | O=C(NO)c1cnc(NC2(c3cccc(F)c3)CCCCC2)nc1 [Compound C, 2-((1-(3-fluorophenyl)cyclohexyl)amino)-N-hydroxypyrimidine-5-carboxamide] | – | – | synergistic decreases in lymphoma cell viability | – | –
4 | O=C(CCCCCCNC(=O)c1cnc(N(c2ccccc2)c2ccccc2Cl)nc1)NO [Compound B, 2-((2-chlorophenyl)(phenyl)amino)-N-(7-(hydroxyamino)-7-oxoheptyl)pyrimidine-5-carboxamide] | synergistic increases in cellular apoptosis | small increase in apoptosis relative to control cells | synergistic decreases in lymphoma cell viability | decreased cell cycle progression | –
